Assays:
APP 5′UTR = assay: High-throughput transfection-based APP 5′UTR luciferase reporter assay in SH-SY5Y cells; type: cell-based; details: high-throughput screen
SARS-CoV-2 USA-WA1/2020 = type: cell-based; details: for viral infectivity (plaque assay): Vero-E6, MOI 0.0002, drug at 1 uM; for anti-viral activity against CoV2 infection of Vero-C6 cells: Vero-C6 (African green monkey kidney cells), dose response; for viral infectivity (number of plaques): Vero-E6, MOI 0.0001 or 0.0002, drugs added after infection at 1 uM and 10 uM
APP 5′UTR / IRP1 = details: refs [25,27]; cited from earlier work
APP mRNA = details: refs [25,27]; cited from earlier work
SARS-CoV-2 = assay: Anti-viral efficacy assay by immunocytochemical fluorescence in infected Vero E6 cells; type: cell-based
Source text: 9A: Typical anti-viral efficacy assays conducted for the top COVID-19 inhibitors from a range of APP 5′UTR-directed inhibitors. In this exemplary case, Vero E6 cells were infected with SARS-CoV-2 at a multiplicity of infection of 0.1 and treated either with DMSO (negative control) or compound at the indicated concentrations. At 2 days post infection, cells were fixed and stained with an antibody against SARS-CoV-2 nucleocapsid protein. Cell nuclei were stained with DAPI. Infection rates quantified using Qupath software. 9B: Densitometric quantitation of JTR-009 dependent inhibition of Spike protein in COVID-19 infected Vero E6 cells (based on levels of Spike immunocytochemistry shown).
Initial virus assays were performed to experimentally test the benzimidazole APP 5′UTR directed translation blocker-9 (JTR-9) (FIG. 9). […] We tested JTR-009 for possible antiviral efficacy potentially via the related the CRRM motifs in the replicase open reading frame (ORF) related to the APP 5′UTR. We employed immunocytochemical fluorescence of Spike Protein as readout for viral infectivity. […] Therapeutic activity is being tested via the two CRRM RNA motifs in the virus replicase (FIG. 9).

| Structure (SMILES) | inhibition of APP 5′UTR driven expression of a Luciferase reporter gene (APP 5′UTR) [%] | viral infectivity (plaque assay) (SARS-CoV-2 USA-WA1/2020) | anti-viral activity against CoV2 infection of Vero-C6 cells (SARS-CoV-2 USA-WA1/2020) | viral infectivity (number of plaques) (SARS-CoV-2 USA-WA1/2020) | other results |
| --- | --- | --- | --- | --- | --- |
| COC(=O)Nc1nc2ccc(Sc3ccccc3)cc2[nH]1 [Fenbendazole] | 91.5 |  |  |  |  |
| CCCOc1ccc2nc(NC(=O)OC)[nH]c2c1 [oxibendazole] | 85.9 |  |  |  |  |
| CC(O)(CCOP(=O)(O)OP(=O)(O)O)CC(=O)O (stereo not drawn) [Syn-516] |  | reduced viral infectivity |  |  |  |
| CCC12C=CCN3CC[C@@]4(c5ccc(OC)cc5N(C)[C@H]4[C@@](O)(C(=O)OC)[C@@H]1OC(C)=O)[C@@H]32 (mixture of isomers) [B1, vindoline] |  | reduced viral infectivity |  |  |  |
| Cc1ccc2[nH]c(-c3ccc(N)cc3)nc2c1 [JTR-009] |  |  | dose responsive anti-viral activity | inhibited viral infectivity | binding of the APP 5′UTR to its cognate RNA binding protein, IRP1 (APP 5′UTR / IRP1): prevented binding; APP mRNA translation (APP mRNA): reduced APP mRNA translation; inhibition of COVID-19 viral spike protein (densitometric quantitation) (SARS-CoV-2; FIGS. 9A-B): inhibited COVID-19 viral spike protein; COVID-19 infectivity (immunocytochemical fluorescence of Spike Protein as readout) (SARS-CoV-2; MOI 0.1, 2 days post infection): dose-dependently inhibited COVID-19 infectivity |
| Cc1c(OCC(F)(F)F)ccnc1C[S+]([O-])c1nc2ccccc2[nH]1 (stereo not shown) [Lansoprazole] |  |  | dose responsive anti-viral activity | inhibited viral infectivity |  |
| CN1CC[C@]2(C)c3cc(OC(=O)Nc4ccccc4)ccc3N(C)[C@H]12 [Posiphen, posiphen] |  | reduced viral infectivity |  |  |  |
| CCCSc1ccc2nc(NC(=O)OC)[nH]c2c1 [Albendazole] | 92.2 |  | dose responsive anti-viral activity | inhibited viral infectivity |  |
